Measurements as given in publication PMC12028564, “A New Class of BRCA1 Mimetics for ERα-Positive Breast Cancer Therapy: Design, Synthesis, In Silico Screening, In Vitro Assay, and Gene Expression Analysis” (Life, 2025).
Like-named read-outs stand apart in the source and are kept apart here.

Columns and labels:
[1] = test system: Vero cells; experiment: MTT cytotoxicity assay on Vero cells; type: cell-based
From the text: (§1) Vero cells are known for their ability to assess the safety of new compounds and their sensitivity to a wide range of toxic substances. MDA-MB-231 cells are derived from human […] breast cancer tissue. MDA-MB-231 cells provide a reliable method for assessing the toxicity and effectiveness of potential anticancer compounds, especially those that target estrogen receptors or associated pathways. We assessed the anticancer activity of the compounds on Vero cells and MDA-MB-231 using the MTT (3-(4,5-dimethyl thiazol-2yl)-2,5-diphenyl tetrazolium bromide) assay. The MTT assay is one of the most commonly used for cancer drug screening. This is a basic and easy assay for cytotoxicity, and it is one of the most popular cytotoxicity assays in the research laboratory. We plated cells (1 × 10^5/well) in 96-well plates using 0.2 mL of medium per well. We carefully removed the media from the wells for the MTT assay after incubation. After two to three MEM (w/o) FCS washes, 200 µL of MTT (5 mg/mL) was added to each well. We incubated the plates for 6–7 h in a 5% CO^2 incubator to test for cytotoxicity. Following the incubation, we added […] of vehicle (DMSO) to each well, mixed it thoroughly with a micropipette, and left it for 45 s. NADPH-dependent dehydrogenase catalyzes the conversion of tetrazolium salt (MTT) into a purple formazan product in cells. This indicates the presence of metabolically active cells. We placed the solution in the spectrophotometer’s cuvette and recorded the optical density at 595 nm, using DMSO as the blank reference. Measurements were conducted, and the concentration required for 50% inhibition of viability (IC50) was visually determined. A standard graph was constructed, with the drug concentration plotted on the X-axis and relative cell viability on the Y-axis. %Cell Viability=Mean Optical Density of Individual Sample/Mean Optical Density of Control×100

[2] = test system: MDA-MB-231 cells; experiment: MTT cytotoxicity assay on MDA-MB-231 cells; type: cell-based, human
From the text: as §1

[3] = test system: Cyclin D1; experiment: RT-qPCR gene expression of Cyclin D1 (ΔΔCt method, GAPDH reference) in MDA-MB-231 cells; type: cell-based, human; conditions: for Cyclin D1 ΔΔCt: versus cell control
From the text: (§2) To determine whether the synthesized compounds were repressing the ER alpha protein or not, we performed gene expression analyses for Cyclin D1 and BCL2 using the real-time quantitative polymerase chain reaction (RT-qPCR). RT-qPCR is an efficient, simple, and low-cost technique to quantify gene expression levels. The delta-delta Ct (ΔΔCt) method is a widely used technique for analyzing real-time quantitative PCR (qPCR) data. We chose three compounds, 9b, 9l, and 9m, based on their lowest IC50 values and conducted gene expression studies for BCL2 and Cyclin D1. We used the GAPDH as a reference gene. We chose primer pairings with the lowest penalty value designed by the Primer Express 2.0 software to obtain the best results.
A 100-picomolar primer stock was prepared utilizing primers of Cyclin D1, BCL2, and GAPDH (Table 6), which were then diluted to a 10-picomolar working stock for use in real-time PCR. RNA was extracted from four samples utilizing the PureLink RNA Mini Kit and quantified using the Biophotometer Plus (Table 3). A total of 1 µg of RNA was taken from the isolated RNA and used for cDNA synthesis with the Takara Prime Script 1st Strand cDNA Synthesis Kit. Each real-time PCR experiment utilized 25 ng of cDNA, 10 picomolar forward and reverse primers, and a final reaction volume of 20 µL. Cyclin D1, BCL2, and GAPDH average Ct values were extracted from each sample’s replicates. Then, using the formula below (1), we determined the ΔCt from the mean Ct values of Cyclin D1 and BCL2 with reference to the reference gene’s GAPDH mean Ct values. In the real-time qPCR, the temperature was set at 95 °C for 10 min (denaturation), then 40 cycles at 95 °C for 15 s and 60 °C for one minute. Each sample was processed in triplicate in six-well plates for the qPCR analysis using the Qiagen kit. The comparative Ct was used for quantification analysis, and the Ct values (Ct1, Ct2, and Ct3) were averaged.ΔCt = Ct (gene of interest) − Ct (housekeeping gene)(1)
We calculated the ΔΔCt from the ΔCt values of the Cyclin D1 and BCL2. The […] were calculated using the following Formula (2).ΔΔCt = ΔCt (Sample) − ΔCt (Control)(2)
Finally, we calculated the fold gene expression for CyclinD1 and BCL2 with reference to the reference gene GAPDH using the following Formula (3) (Table 5).Fold gene expression = 2^−ΔΔCt(3)

[4] = test system: BCL2; experiment: RT-qPCR gene expression of BCL2 (ΔΔCt method, GAPDH reference) in MDA-MB-231 cells; type: cell-based, human; conditions: versus cell control
From the text: as §2, with “We chose primer pairings with the lowest penalty value designed by the Primer Express 2.0 software to obtain the best results.” left out
A 100-picomolar primer stock was prepared utilizing primers of Cyclin D1, BCL2, and GAPDH (Table 6), which were then diluted to a 10-picomolar working stock for use in real-time PCR. RNA was extracted from four samples utilizing the PureLink RNA Mini Kit and quantified using the Biophotometer Plus (Table 3). […] Then, using the formula below (1), we determined the ΔCt from the mean Ct values of Cyclin D1 and BCL2 with reference to the reference gene’s GAPDH mean Ct values. […] The comparative Ct was used for quantification analysis, and the Ct values (Ct1, Ct2, and Ct3) were averaged.ΔCt = Ct (gene of interest) − Ct (housekeeping gene)(1)
We calculated the ΔΔCt from the ΔCt values of the Cyclin D1 and BCL2. […]

[5] = test system: MDA-MB-231 cells; parameters: method as in PMID 24278556; conditions: reference drug, reported value; cited from earlier work

| SMILES | IC50 [1] | IC50 [2] | Cyclin D1 ΔΔCt [3] | IC50 ([1]; Chlorocebus sabaeus) | IC50 ([2]; Homo sapiens) | also measured |
| --- | --- | --- | --- | --- | --- | --- |
| Cc1c/c(=N\NC(=S)/N=C/c2ccc(Cl)cc2Cl)oc2cc(O)ccc12 [Compound 7a] | 513 µM | 357 µM |  |  |  |  |
| COc1ccc(/C=N/C(=S)N/N=c2\cc(C)c3ccc(O)cc3o2)cc1 [Compound 7i] | 292 µM | 237 µM |  |  |  |  |
| Cc1c/c(=N\NC(=S)/N=C/c2ccc(Br)cc2)oc2cc(O)ccc12 [Compound 7m] | 149 µM | 90.5 µM |  |  |  |  |
| Oc1c/c(=N\NC(=S)/N=C/c2ccc(Cl)cc2)oc2ccccc12 [Compound 9b] |  |  | −0.57 | 60.9 µM | 14.5 µM | Relative gene expression CyclinD1 ([3]; control = 1): 1.485; Cyclin D1 2^(−ΔΔCt) ([3]; fold gene expression): 1.485; BCL2 ΔΔCt [4]: 1.42 |
| Oc1c/c(=N\NC(=S)/N=C/c2cccc3ccccc23)oc2ccccc12 [Compound 9c] | 87.4 µM | 61.5 µM |  |  |  |  |
| O=[N+]([O-])c1ccc(/C=N/C(=S)N/N=c2\cc(O)c3ccccc3o2)cc1 [Compound 9l] |  |  | 2.2 | 87.7 µM | 35.1 µM |  |
| Oc1c/c(=N\NC(=S)/N=C/c2ccc(Br)cc2)oc2ccccc12 [Compound 9m] |  |  | 2.03 | 68.7 µM | 42.1 µM | BCL2 ΔΔCt [4]: 1.41 |
| Oc1cc(/C=N/C(=S)N/N=c2\cc(O)c3ccccc3o2)cc(O)c1O [Compound 9n] | 119 µM | 47.7 µM |  |  |  |  |
| O=C(c1ccc(OCCN2CCCCC2)cc1)c1c(-c2ccc(O)cc2)sc2cc(O)ccc12 [Raloxifene] |  |  |  |  |  | IC50 [5]: 13.7 µM |
